Experimental data from the supplement of paper PMC10307832.

Columns and labels:
Assay in all cases: relative viability (nuclei count vs DMSO), 5 days (fraction); higher = more cells survive
Bosutinib + Trametinib = compound: COc1cc(Nc2c(C#N)cnc3cc(OCCCN4CCN(C)CC4)c(OC)cc23)c(Cl)cc1Cl [Bosutinib] + CC(=O)Nc1cccc(-n2c(=O)n(C3CC3)c(=O)c3c(Nc4ccc(I)cc4F)n(C)c(=O)c(C)c32)c1 [Trametinib] (partner 0.02 µM)
Summary of the method: (§1)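 Relative viability is defined as nuclei in treated wells over nuclei in vehicle wells. Duplicate plates were run and medians reported. Lung cancer cell lines in 1536-well plates were dosed by pin tool one day after seeding, with one drug or with a fixed anchor-drug dose plus five library-drug doses (not always all listed) in √10 steps, and nuclei were counted after 5 days.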

Bosutinib + AZD7762 = compound: COc1cc(Nc2c(C#N)cnc3cc(OCCCN4CCN(C)CC4)c(OC)cc23)c(Cl)cc1Cl [Bosutinib] + NC(=O)Nc1cc(-c2cccc(F)c2)sc1C(=O)N[C@H]1CCCNC1 [AZD7762] (partner 0.2 µM)
Summary of the method: as §1

Bosutinib + OSI-027 = compound: COc1cc(Nc2c(C#N)cnc3cc(OCCCN4CCN(C)CC4)c(OC)cc23)c(Cl)cc1Cl [Bosutinib] + COc1cccc2cc(-c3nc([C@H]4CC[C@H](C(=O)O)CC4)n4ncnc(N)c34)[nH]c12 [OSI-027] (partner 0.5 µM)
Summary of the method: as §1

Bosutinib + Pemetrexed = compound: COc1cc(Nc2c(C#N)cnc3cc(OCCCN4CCN(C)CC4)c(OC)cc23)c(Cl)cc1Cl [Bosutinib] + Nc1nc2[nH]cc(CCc3ccc(C(=O)N[C@@H](CCC(=O)O)C(=O)O)cc3)c2c(=O)[nH]1 [Pemetrexed] (partner 0.2 µM)
Summary of the method: as §1

Bosutinib + Olaparib = compound: COc1cc(Nc2c(C#N)cnc3cc(OCCCN4CCN(C)CC4)c(OC)cc23)c(Cl)cc1Cl [Bosutinib] + O=C(c1cc(Cc2n[nH]c(=O)c3ccccc23)ccc1F)N1CCN(C(=O)C2CC2)CC1 [Olaparib] (partner 8 µM)
Summary of the method: as §1

Bosutinib + Decitabine = compound: COc1cc(Nc2c(C#N)cnc3cc(OCCCN4CCN(C)CC4)c(OC)cc23)c(Cl)cc1Cl [Bosutinib] + Nc1ncn([C@H]2C[C@H](O)[C@@H](CO)O2)c(=O)n1 [Decitabine] (partner 2 µM)
Summary of the method: as §1

Bosutinib + Palbociclib = compound: COc1cc(Nc2c(C#N)cnc3cc(OCCCN4CCN(C)CC4)c(OC)cc23)c(Cl)cc1Cl [Bosutinib] + CC(=O)c1c(C)c2cnc(Nc3ccc(N4CCNCC4)cn3)nc2n(C2CCCC2)c1=O [Palbociclib] (partner 0.5 µM)
Summary of the method: as §1

Bosutinib + Vorinostat = compound: COc1cc(Nc2c(C#N)cnc3cc(OCCCN4CCN(C)CC4)c(OC)cc23)c(Cl)cc1Cl [Bosutinib] + O=C(CCCCCCC(=O)Nc1ccccc1)NO [Vorinostat] (partner 1 µM)
Summary of the method: as §1

Bosutinib + Tozasertib = compound: COc1cc(Nc2c(C#N)cnc3cc(OCCCN4CCN(C)CC4)c(OC)cc23)c(Cl)cc1Cl [Bosutinib] + Cc1cc(Nc2cc(N3CCN(C)CC3)nc(Sc3ccc(NC(=O)C4CC4)cc3)n2)n[nH]1 [Tozasertib] (partner 0.1 µM)
Summary of the method: as §1

Bosutinib = compound: COc1cc(Nc2c(C#N)cnc3cc(OCCCN4CCN(C)CC4)c(OC)cc23)c(Cl)cc1Cl [Bosutinib]
Summary of the method: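 After an overnight hold at 37 °C, lung cancer cell lines in 1536-well plates were pinned with five library-drug doses (not always all listed), each √10 from the next, on vehicle-anchored plates. The cells stayed 5 days without fresh medium, then a one-step fix, permeabilisation and Hoechst stain preceded 4× imaging and MetaXpress nuclear counts. A plate passed only with control CV under 25% and at least one doubling. Viability is the median, over plates, of treated-well nuclei relative to vehicle-well nuclei.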

Bosutinib + Pictilisib = compound: COc1cc(Nc2c(C#N)cnc3cc(OCCCN4CCN(C)CC4)c(OC)cc23)c(Cl)cc1Cl [Bosutinib] + CS(=O)(=O)N1CCN(Cc2cc3nc(-c4cccc5[nH]ncc45)nc(N4CCOCC4)c3s2)CC1 [Pictilisib] (partner 1 µM)
Summary of the method: as §1

Bosutinib + Lapatinib = compound: COc1cc(Nc2c(C#N)cnc3cc(OCCCN4CCN(C)CC4)c(OC)cc23)c(Cl)cc1Cl [Bosutinib] + CS(=O)(=O)CCNCc1ccc(-c2ccc3ncnc(Nc4ccc(OCc5cccc(F)c5)c(Cl)c4)c3c2)o1 [Lapatinib] (partner 2 µM)
Summary of the method: as §1

Bosutinib + Foretinib = compound: COc1cc(Nc2c(C#N)cnc3cc(OCCCN4CCN(C)CC4)c(OC)cc23)c(Cl)cc1Cl [Bosutinib] + COc1cc2c(Oc3ccc(NC(=O)C4(C(=O)Nc5ccc(F)cc5)CC4)cc3F)ccnc2cc1OCCCN1CCOCC1 [Foretinib] (partner 0.25 µM)
Summary of the method: as §1

Bosutinib + Bortezomib = compound: COc1cc(Nc2c(C#N)cnc3cc(OCCCN4CCN(C)CC4)c(OC)cc23)c(Cl)cc1Cl [Bosutinib] + CC(C)C[C@H](NC(=O)[C@H](Cc1ccccc1)NC(=O)c1cnccn1)B(O)O [Bortezomib] (partner 0.002 µM)
Summary of the method: as §1

Bosutinib + Linsitinib = compound: COc1cc(Nc2c(C#N)cnc3cc(OCCCN4CCN(C)CC4)c(OC)cc23)c(Cl)cc1Cl [Bosutinib] + C[C@]1(O)C[C@@H](c2nc(-c3ccc4ccc(-c5ccccc5)nc4c3)c3c(N)nccn32)C1 [Linsitinib] (partner 1 µM)
Summary of the method: as §1

Bosutinib + Navitoclax = compound: COc1cc(Nc2c(C#N)cnc3cc(OCCCN4CCN(C)CC4)c(OC)cc23)c(Cl)cc1Cl [Bosutinib] + CC1(C)CCC(c2ccc(Cl)cc2)=C(CN2CCN(c3ccc(C(=O)NS(=O)(=O)c4ccc(N[C@H](CCN5CCOCC5)CSc5ccccc5)c(S(=O)(=O)C(F)(F)F)c4)cc3)CC2)C1 [Navitoclax] (partner 0.5 µM)
Summary of the method: as §1

Bosutinib + Alpelisib = compound: COc1cc(Nc2c(C#N)cnc3cc(OCCCN4CCN(C)CC4)c(OC)cc23)c(Cl)cc1Cl [Bosutinib] + Cc1nc(NC(=O)N2CCC[C@H]2C(N)=O)sc1-c1ccnc(C(C)(C)C(F)(F)F)c1 [Alpelisib] (partner 2 µM)
Summary of the method: as §1

Bosutinib + Crizotinib = compound: COc1cc(Nc2c(C#N)cnc3cc(OCCCN4CCN(C)CC4)c(OC)cc23)c(Cl)cc1Cl [Bosutinib] + C[C@@H](Oc1cc(-c2cnn(C3CCNCC3)c2)cnc1N)c1c(Cl)ccc(F)c1Cl [Crizotinib] (partner 1 µM)
Summary of the method: as §1

For NCI-H1648, the relative viability (Bosutinib + Trametinib; first compound 0.01 µM) was 0.548, the relative viability (Bosutinib + Trametinib; first compound 0.03162 µM) was 0.501 and the relative viability (Bosutinib + Trametinib; first compound 0.1 µM) was 0.505. The relative viability (Bosutinib + Trametinib; first compound 1 µM) was 0.421, the relative viability (Bosutinib + AZD7762; first compound 0.01 µM) was 0.659 and the relative viability (Bosutinib + AZD7762; first compound 0.03162 µM) was 0.639. The relative viability (Bosutinib + AZD7762; first compound 0.1 µM) was 0.838, the relative viability (Bosutinib + AZD7762; first compound 1 µM) was 0.61 and the relative viability (Bosutinib + OSI-027; first compound 0.01 µM) was 0.286. The relative viability (Bosutinib + OSI-027; first compound 0.03162 µM) was 0.251, the relative viability (Bosutinib + OSI-027; first compound 0.1 µM) was 0.261 and the relative viability (Bosutinib + OSI-027; first compound 1 µM) was 0.245. The relative viability (Bosutinib + Pemetrexed; first compound 0.01 µM) was 0.728, the relative viability (Bosutinib + Pemetrexed; first compound 0.03162 µM) was 0.824 and the relative viability (Bosutinib + Pemetrexed; first compound 0.1 µM) was 0.744. For the same cell line, the relative viability (Bosutinib + Pemetrexed; first compound 1 µM) was 0.813, the relative viability (Bosutinib + Olaparib; first compound 0.01 µM) was 0.953 and the relative viability (Bosutinib + Olaparib; first compound 0.03162 µM) was 0.703. It also gave a relative viability (Bosutinib + Olaparib; first compound 0.1 µM) of 1.01, a relative viability (Bosutinib + Olaparib; first compound 1 µM) of 0.77 and a relative viability (Bosutinib + Decitabine; first compound 0.01 µM) of 0.471. For the same cell line, the relative viability (Bosutinib + Decitabine; first compound 0.03162 µM) was 0.622, the relative viability (Bosutinib + Decitabine; first compound 0.1 µM) was 0.662 and the relative viability (Bosutinib + Decitabine; first compound 1 µM) was 0.675. It also gave a relative viability (Bosutinib + Palbociclib; first compound 0.01 µM) of 0.297, a relative viability (Bosutinib + Palbociclib; first compound 0.03162 µM) of 0.278 and a relative viability (Bosutinib + Palbociclib; first compound 0.1 µM) of 0.26. It also gave a relative viability (Bosutinib + Palbociclib; first compound 1 µM) of 0.341, a relative viability (Bosutinib + Vorinostat; first compound 0.01 µM) of 0.389 and a relative viability (Bosutinib + Vorinostat; first compound 0.03162 µM) of 0.471. It also gave a relative viability (Bosutinib + Vorinostat; first compound 0.1 µM) of 0.541, a relative viability (Bosutinib + Vorinostat; first compound 1 µM) of 0.511 and a relative viability (Bosutinib + Tozasertib; first compound 0.01 µM) of 0.594. The relative viability (Bosutinib + Tozasertib; first compound 0.03162 µM) was 0.447, the relative viability (Bosutinib + Tozasertib; first compound 0.1 µM) was 0.396 and the relative viability (Bosutinib + Tozasertib; first compound 1 µM) was 0.462. It also gave a relative viability (Bosutinib; 0.01 µM) of 1.15, a relative viability (Bosutinib; 0.03162 µM) of 0.851 and a relative viability (Bosutinib; 0.1 µM) of 0.997. It also gave a relative viability (Bosutinib; 1 µM) of 0.931.
In the case of EBC-1, the relative viability (Bosutinib + Pictilisib; first compound 0.01 µM) is reported as 0.347, the relative viability (Bosutinib + Pictilisib; first compound 0.03162 µM) is reported as 0.463 and the relative viability (Bosutinib + Pictilisib; first compound 0.1 µM) is reported as 0.404. It also gave a relative viability (Bosutinib + Pictilisib; first compound 1 µM) of 0.358, a relative viability (Bosutinib + Lapatinib; first compound 0.01 µM) of 0.216 and a relative viability (Bosutinib + Lapatinib; first compound 0.03162 µM) of 0.221. The relative viability (Bosutinib + Lapatinib; first compound 0.1 µM) was 0.187, the relative viability (Bosutinib + Lapatinib; first compound 1 µM) was 0.204 and the relative viability (Bosutinib + Foretinib; first compound 0.01 µM) was 0.115. For the same cell line, the relative viability (Bosutinib + Foretinib; first compound 0.03162 µM) was 0.11, the relative viability (Bosutinib + Foretinib; first compound 0.1 µM) was 0.104 and the relative viability (Bosutinib + Foretinib; first compound 1 µM) was 0.0985. The relative viability (Bosutinib + Bortezomib; first compound 0.01 µM) was 0.484, the relative viability (Bosutinib + Bortezomib; first compound 0.03162 µM) was 0.492 and the relative viability (Bosutinib + Bortezomib; first compound 0.1 µM) was 0.513. It also gave a relative viability (Bosutinib + Bortezomib; first compound 1 µM) of 0.523, a relative viability (Bosutinib + Linsitinib; first compound 0.01 µM) of 0.93 and a relative viability (Bosutinib + Linsitinib; first compound 0.03162 µM) of 0.906. The relative viability (Bosutinib + Linsitinib; first compound 0.1 µM) was 0.937, the relative viability (Bosutinib + Linsitinib; first compound 1 µM) was 0.916 and the relative viability (Bosutinib + Olaparib; first compound 0.01 µM) was 0.693. For the same cell line, the relative viability (Bosutinib + Olaparib; first compound 0.03162 µM) was 0.737, the relative viability (Bosutinib + Olaparib; first compound 0.1 µM) was 0.659 and the relative viability (Bosutinib + Olaparib; first compound 1 µM) was 0.658. It also gave a relative viability (Bosutinib + Navitoclax; first compound 0.01 µM) of 0.393, a relative viability (Bosutinib + Navitoclax; first compound 0.03162 µM) of 0.461 and a relative viability (Bosutinib + Navitoclax; first compound 0.1 µM) of 0.519. For the same cell line, the relative viability (Bosutinib + Navitoclax; first compound 1 µM) was 0.609, the relative viability (Bosutinib + Alpelisib; first compound 0.01 µM) was 0.787 and the relative viability (Bosutinib + Alpelisib; first compound 0.03162 µM) was 0.798. The relative viability (Bosutinib + Alpelisib; first compound 0.1 µM) was 0.833, the relative viability (Bosutinib + Alpelisib; first compound 1 µM) was 0.736 and the relative viability (Bosutinib + Crizotinib; first compound 0.01 µM) was 0.199. For the same cell line, the relative viability (Bosutinib + Crizotinib; first compound 0.03162 µM) was 0.185, the relative viability (Bosutinib + Crizotinib; first compound 0.1 µM) was 0.183 and the relative viability (Bosutinib + Crizotinib; first compound 1 µM) was 0.191. It also gave a relative viability (Bosutinib; 0.01 µM) of 1.05, a relative viability (Bosutinib; 0.03162 µM) of 0.956 and a relative viability (Bosutinib; 0.1 µM) of 0.984. For the same cell line, the relative viability (Bosutinib; 1 µM) was 0.881.
